From patent publication US20100022562A1, “Use of Plant Growth Regulators to Reduce Abscisic Acid Related Plant Leaf Yellowing” (priority 2008, published 2010)

Legend:
[1] = system: Pansy plants; test: Pansy shelf life under drought (daily wilting rating, sales index); type: in vivo
Description: All studies were conducted in the greenhouse at the research farm of Valent BioSciences Corporation (Long Grove, Ill.). Pansy plants were obtained either from local retailers as mature plants, or plugs from wholesale nurseries. Plugs of Pansy plants were transplanted into an 18-cell flat filled with Promix BX (available from Premier Horticulture Inc. Quakertown, Pa.) and grown for about 30 days prior to treatment. During growing periods, plants received daily irrigation and weekly fertilizer (1 g/L all purpose fertilizer 20-20-20, The Scotts Company, Marysville, Ohio).
(§1) Uniform plants were selected for the study. Prior to chemical treatment, plants were saturated with water and then drained for about two hours. A total of 20 mL chemical solution, which is equivalent to about 10% of the cell volume, was applied to each plant with 3 mL solution foliar applied to canopy and 17 mL solution drench applied to root zone. Unless specified, watering of plants was stopped after chemical treatment.
(§2) After chemical treatment, plants were arranged in a randomized complete block experimental design. The plants were rated daily for the extent of wilting on a scale from 1 (no wilting) to 4 (complete wilting) to generated a sales index rating. A rating of 2.5 was the point at which a plant was determined to be unmarketable and the previous day was recorded as the shelf life of that plant in days. Yellow leaf number was counted at 3 days after chemical treatment. Leaf transpiration rate was measured after treatment using a LI-1600 Steady State Porometer (LI-Cor, Lincoln, Nebr.). The transpiration rate of each treatment was calculated as the percentage of that of control at each day to reduce day-to-day variation caused by changes of environmental condition such as light intensity, humidity, and temperature.

[2] = system: Pansy plants; test: Pansy leaf transpiration rate (LI-1600 Steady State Porometer); type: in vivo; conditions: for Transpiration rate (% of control): Matrix Premium Rose
Description: as §1, §2

(S)-5-(1-hydroxy-2,6,6,-trimethyl-4-oxo-2-cyclohexen-1-yl)-3-methyl-(2Z,4E)-pentadienoic acid [ABA]
Shelf life ([1]; 0.3 mg ABA, Matrix Yellow, Table 5): 4.8 days | Shelf life ([1]; 0.3 mg ABA, Matrix Yellow, Table 6): 4.8 days | Shelf life ([1]; 0.3 mg ABA, Matrix Yellow, Table 17): 3.2 days | Shelf life ([1]; 1 mg, Matrix Orange, drought, Table 1): 5.0 days | Shelf life ([1]; 3 mg ABA, Colossus Formula Mix, no water, Table 20): 5.2 days | Shelf life ([1]; 3 mg ABA, Delta Premium Pure White, Table 21): 8.3 days | Shelf life ([1]; 3 mg ABA, Delta Premium Pure White, Table 22): 5.7 days | Shelf life ([1]; 3 mg ABA, Delta Premium Pure White, Table 24): 5.2 days | Shelf life ([1]; 3 mg ABA, Matrix Yellow, Table 5): 5.7 days | Shelf life ([1]; 3 mg ABA, Matrix Yellow, Table 6): 6.0 days | Shelf life ([1]; 3 mg ABA, Matrix Yellow, Table 17): 4.3 days | Shelf life ([1]; 3 mg ABA, no water, Matrix Premium Rose, Table 13): 4.8 days | Shelf life ([1]; 3 mg, Clear Sky Yellow, drought, Table 8): 6.5 days | Shelf life ([1]; 3 mg, Crown Azure Blue, drought, Table 9): 5.2 days | Shelf life ([1]; 3 mg, Delta Premium Pure Golden Yellow, advanced seedling stage (1 month old), drought, Table 4): 4.2 days | Shelf life ([1]; 3 mg, Delta Premium Pure Golden Yellow, drought, Table 3): 5.3 days | Shelf life ([1]; 3 mg, Matrix Orange, drought, Table 1): 5.8 days | Shelf life ([1]; 3 mg, Matrix Orange, drought, Table 2): 5.2 days | Shelf life ([1]; 3 mg, Matrix Yellow, drought, Table 7): 7.7 days | Shelf life ([1]; 3 mg, Matrix Yellow, drought, Table 10): 4.3 days | Shelf life ([1]; 10 mg, Delta Premium Pure Golden Yellow, advanced seedling stage (1 month old), drought, Table 4): 5.7 days | Shelf life ([1]; 10 mg, Delta Premium Pure Golden Yellow, drought, Table 3): 6.5 days | Shelf life ([1]; 10 mg, Matrix Orange, drought, Table 1): 7.0 days | Shelf life ([1]; 10 mg, Matrix Orange, drought, Table 2): 6.7 days | Shelf life ([1]; 30 mg ABA, Colossus Formula Mix, Table 18): 6.2 days | Shelf life ([1]; 30 mg ABA, Colossus Formula Mix, no water, Table 20): 6.5 days | Shelf life ([1]; 30 mg ABA, Delta Premium Pure White, Table 19): 8.7 days | Shelf life ([1]; 30 mg ABA, Delta Premium Pure White, Table 21): 10.2 days | Shelf life ([1]; 30 mg ABA, Delta Premium Pure White, Table 22): 9.2 days | Shelf life ([1]; 30 mg ABA, Delta Premium Pure White, Table 23): 8.2 days | Shelf life ([1]; 30 mg ABA, Delta Premium Pure White, Table 24): 7.2 days | Shelf life ([1]; 30 mg ABA, Matrix Premium Rose, no water from 1 day after ABA, Table 11): 7.2 days | Shelf life ([1]; 30 mg ABA, Matrix Yellow, Table 5): 10.2 days | Shelf life ([1]; 30 mg ABA, Matrix Yellow, Table 6): 10.8 days | Shelf life ([1]; 30 mg ABA, Matrix Yellow, Table 17): 8.3 days | Shelf life ([1]; 30 mg ABA, no water, Matrix Premium Rose, Table 13): 7.2 days | Shelf life ([1]; 30 mg, Clear Sky Yellow, drought, Table 8): 7.8 days | Shelf life ([1]; 30 mg, Crown Azure Blue, drought, Table 9): 6.7 days | Shelf life ([1]; 30 mg, Delta Premium Pure Golden Yellow, advanced seedling stage (1 month old), drought, Table 4): 7.7 days | Shelf life ([1]; 30 mg, Delta Premium Pure Golden Yellow, drought, Table 3): 8.0 days | Shelf life ([1]; 30 mg, Matrix Orange, drought, Table 1): 8.0 days | Shelf life ([1]; 30 mg, Matrix Orange, drought, Table 2): 9.2 days | Shelf life ([1]; 30 mg, Matrix Yellow, drought, Table 7): 9.3 days | Shelf life ([1]; 30 mg, Matrix Yellow, drought, Table 10): 8.0 days | Transpiration rate (% of control) ([2]; 3 mg ABA, no water, day 1 after treatment, Table 14): 22 % of control | Transpiration rate (% of control) ([2]; 3 mg ABA, no water, day 2 after treatment, Table 14): 15 % of control | Transpiration rate (% of control) ([2]; 3 mg ABA, no water, day 3 after treatment, Table 14): 34 % of control | Transpiration rate (% of control) ([2]; 3 mg ABA, no water, day 4 after treatment, Table 14): 35 % of control | Transpiration rate (% of control) ([2]; 3 mg ABA, no water, day 5 after treatment, Table 14): 27 % of control | Transpiration rate (% of control) ([2]; 3 mg ABA, watered, day 1 after treatment, Table 14): 23 % of control | Transpiration rate (% of control) ([2]; 3 mg ABA, watered, day 2 after treatment, Table 14): 18 % of control | Transpiration rate (% of control) ([2]; 3 mg ABA, watered, day 3 after treatment, Table 14): 36 % of control | Transpiration rate (% of control) ([2]; 3 mg ABA, watered, day 4 after treatment, Table 14): 43 % of control | Transpiration rate (% of control) ([2]; 3 mg ABA, watered, day 5 after treatment, Table 14): 59 % of control | Transpiration rate (% of control) ([2]; 3 mg ABA, watered, day 7 after treatment, Table 14): 76 % of control | Transpiration rate (% of control) ([2]; 3 mg ABA, watered, day 10 after treatment, Table 14): 97 % of control | Transpiration rate (% of control) ([2]; 3 mg ABA, watered, day 15 after treatment, Table 14): 97 % of control | Transpiration inhibition ([2]; 3 mg ABA, watered, within 5 days after treatment): more than 50% | Transpiration rate (% of control) ([2]; 30 mg ABA, day 1 after ABA treatment, Table 12): 6 % of control | Transpiration rate (% of control) ([2]; 30 mg ABA, day 2 after ABA treatment, Table 12): 8 % of control | Transpiration rate (% of control) ([2]; 30 mg ABA, day 3 after ABA treatment, Table 12): 11 % of control | Transpiration rate (% of control) ([2]; 30 mg ABA, no water, day 1 after treatment, Table 14): 7 % of control | Transpiration rate (% of control) ([2]; 30 mg ABA, no water, day 2 after treatment, Table 14): 8 % of control | Transpiration rate (% of control) ([2]; 30 mg ABA, no water, day 3 after treatment, Table 14): 8 % of control | Transpiration rate (% of control) ([2]; 30 mg ABA, no water, day 4 after treatment, Table 14): 15 % of control | Transpiration rate (% of control) ([2]; 30 mg ABA, no water, day 5 after treatment, Table 14): 21 % of control | Transpiration rate (% of control) ([2]; 30 mg ABA, no water, day 7 after treatment, Table 14): 27 % of control | Transpiration rate (% of control) ([2]; 30 mg ABA, watered, day 1 after treatment, Table 14): 7 % of control | Transpiration rate (% of control) ([2]; 30 mg ABA, watered, day 2 after treatment, Table 14): 7 % of control | Transpiration rate (% of control) ([2]; 30 mg ABA, watered, day 3 after treatment, Table 14): 9 % of control | Transpiration rate (% of control) ([2]; 30 mg ABA, watered, day 4 after treatment, Table 14): 15 % of control | Transpiration rate (% of control) ([2]; 30 mg ABA, watered, day 5 after treatment, Table 14): 21 % of control | Transpiration rate (% of control) ([2]; 30 mg ABA, watered, day 7 after treatment, Table 14): 28 % of control | Transpiration rate (% of control) ([2]; 30 mg ABA, watered, day 10 after treatment, Table 14): 56 % of control | Transpiration rate (% of control) ([2]; 30 mg ABA, watered, day 15 after treatment, Table 14): 99 % of control | Transpiration inhibition ([2]; 30 mg ABA, watered, through 10 days after treatment): more than 50%
